Assay results taken from patent US11702422B2, “Imidazopyridazines as modulators of IL-17” (Janssen Pharmaceutica NV, priority 2020, dated 2023).

Legend:
[1] = target: IL-17A(FLAG-Tagged): IL-17RA(His-Tagged) (Homo sapiens, UniProt Q16552, K93Q); test: IL-17A(FLAG-Tagged): IL-17RA(His-Tagged) Binding Disruption Eu-HTRF Assay; details: IL-17A/IL-17RA binding disruption, simple average if tested more than once
Summary of the method: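 IC50 comes from a one-site competition fit of the HTRF 665/620 nm ratio. Compound dilutions (2-fold, 22 points) were held 1 h rt with FLAG-tagged IL-17A dimer, then His-tagged IL-17RA plus Eu-cryptate anti-FLAG and D2 anti-His antibodies were added for 2 h rt.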

[2] = system: IL-17A-induced G-CSF production in human normal keratinocyte (NHK); test: NHK Assay: IL-17A-induced G-CSF production in human normal keratinocytes; type: cell-based; details: 24 h, adult normal human keratinocytes, IL-17A 5 ng/mL, simple average if tested more than once
Summary of the method: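 IL-17A (5 ng/mL final) was pre-incubated 1 h at rt with titrated compound and then added to adult normal human keratinocytes (5% FBS, 0.2% DMSO) for 24 h at 37° C. Supernatant G-CSF was measured by HTRF against a standard curve to derive IC50. Viability was checked by CellTiter-Glo.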

Sequence of UniProt Q16552 (Q16552 with tags, fused parts or gaps K93Q): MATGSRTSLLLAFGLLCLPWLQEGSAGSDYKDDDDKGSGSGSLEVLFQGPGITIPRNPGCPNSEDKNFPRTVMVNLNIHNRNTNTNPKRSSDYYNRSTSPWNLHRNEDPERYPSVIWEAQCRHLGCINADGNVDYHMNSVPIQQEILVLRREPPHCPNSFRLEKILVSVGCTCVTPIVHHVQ

| IC50 [1] [µM] | SMILES | IC50 ([2]; Homo sapiens, Keratinocyte) [µM] | IC50 [2] [µM] |
| --- | --- | --- | --- |
| 0.15 | O=C(CC12CC(F)(C1)C2)N[C@@H](c1cnn2cc([C@@H](NC(=O)c3conc3OCC(F)F)C3CCC(F)(F)CC3)nc2c1)C1CC1 [Example 295, N—((S)-(7-((R)-Cyclopropyl(2-(3-fluorobicyclo[1.1.1]pentan-1-yl)acetamido)methyl)imidazo[1,2-b]pyridazin-2-yl)(4,4-difluorocyclohexyl)methyl)-3-(2,2-difluoroethoxy)isoxazole-4-carboxamide] | 0.71 | – |
| 17 | Cc1noc(C)c1C(=O)N[C@H](c1cn2ncc([C@H](NC(=O)CCC(F)(F)F)C3CC3)cc2n1)C1CCC(F)(F)CC1 [Example 80, N—((S)-(7-((R)-Cyclopropyl(4,4,4-trifluorobutanamido)methyl)imidazo[1,2-b]pyridazin-2-yl)(4,4-difluorocyclohexyl)methyl)-3,5-dimethylisoxazole-4-carboxamide] | > 20 | – |
| 0.9 | CCOCC(NC(=O)CC1CC(F)(F)C1)c1cnn2cc([C@@H](NC(=O)c3ccnn3C(C)C)C3CCC(F)(F)CC3)nc2c1 (single isomer, unassigned) [Example 528, N—((S)-(7-((R*)-1-(2-(3,3-Difluorocyclobutyl)acetamido)-2-ethoxyethyl)imidazo[1,2-b]pyridazin-2-yl)(4,4-difluorocyclohexyl)methyl)-1-isopropyl-1H-pyrazole-5-carboxamide] | – | 2.4 |
| 0.03 | CC(C)C(NC(=O)CC1CC(F)(F)C1)c1cnn2cc([C@@H](NC(=O)c3nonc3C3CC3)C3CCC(F)(F)CC3)nc2c1 (single isomer, unassigned) [Example 512, 4-Cyclopropyl-N—((S)-(7-((S*)-1-(2-(3,3-difluorocyclobutyl)acetamido)-2-methylpropyl)imidazo[1,2-b]pyridazin-2-yl)(4,4-difluorocyclohexyl)methyl)-1,2,5-oxadiazole-3-carboxamide] | 0.035 | – |
| 0.096 | Cc1nonc1C(=O)N[C@H](c1cn2ncc(C(NC(=O)CC3CC(F)(F)C3)C3CCOCC3)cc2n1)C1CCC(F)(F)CC1 (single isomer, unassigned) [Example 534, N—((S)-(7-((R*)-1-(2-(3,3-Difluorocyclobutyl)acetamido)(tetrahydro-2H-pyran-4-yl)methyl)imidazo[1,2-b]pyridazin-2-yl)(4,4-difluorocyclohexyl)methyl)-4-methyl-1,2,5-oxadiazole-3-carboxamide] | 0.07 | – |
| 0.077 | Cc1nonc1C(=O)N[C@H](c1cn2ncc([C@H](NC(=O)C(F)(F)CC3CC3)C3CC3)cc2n1)C1CCC(F)(F)CC1 [Example 339, N—((S)-(7-((R)-Cyclopropyl(3-cyclopropyl-2,2-difluoropropanamido)methyl)imidazo[1,2-b]pyridazin-2-yl)(4,4-difluorocyclohexyl)methyl)-4-methyl-1,2,5-oxadiazole-3-carboxamide] | 0.19 | – |
| 1 | Cc1ncncc1C(=O)N[C@H](c1cn2ncc([C@H](NC(=O)CCC(F)(F)F)C3CC3)cc2n1)C1CCC(F)(F)CC1 [Example 222, N—((S)-(7-((R)-Cyclopropyl(4,4,4-trifluorobutanamido)methyl)imidazo[1,2-b]pyridazin-2-yl)(4,4-difluorocyclohexyl)methyl)-4-methylpyrimidine-5-carboxamide] | > 20 | – |

| SMILES | IC50 [1] [µM] | IC50 ([2]; Homo sapiens, Keratinocyte) [µM] | IC50 [2] [µM] |
| --- | --- | --- | --- |
| CC(C)n1nccc1C(=O)N[C@@H](COC(C)(C)C)c1cn2ncc(C(NC(=O)CCC(F)(F)F)C3CC3)cc2n1 (single isomer, unassigned) [Example 316, N—((R)-2-(tert-Butoxy)-1-(7-((R*)-cyclopropyl(4,4,4-trifluorobutanamido)methyl)imidazo[1,2-b]pyridazin-2-yl)ethyl)-1-isopropyl-1H-pyrazole-5-carboxamide] | 0.24 | – | 0.7 |
